Source: paper PMC8395040 (International Journal of Molecular Sciences, 2021)

Experiments:
human SMO D473H mutant = biological target: T1, human SMO D473H mutant (Homo sapiens, UniProt Q99835, D473H); assay: BODIPY-cyclopamine displacement assay, SMO D473H; format: binding
T1 construct: Myc; expressed in transfected cells; host or cells: HEK293T
Description: (§1) HEK293T cells were transfected with genes encoding human WT SMO tagged with Myc-DDK or human SMO D473H mutant tagged with Myc. Cells were washed in PBS supplemented with 0.5% FBS, fixed in 4% paraformaldehyde in PBS for 10 min, and incubated for 6 h at 37 °C in the same medium supplemented with BODIPY-cyclopamine (5 nM), with and without 4s at different concentrations ([…]). The cells were permeabilised with 0.2% Triton X-100 (Sigma, St. Louis, MO, USA). Dako Fluorescent Mounting solution (Dako, Carpinteria, CA, USA) was used as mounting medium and the Hoechst reagent for staining of cell nuclei. BODIPY (green) and Hoechst (blue) signals were analysed in three representative fields per coverslip (×20 magnification). Data were expressed as the percentage of BC incorporation observed with BC alone.

[1] = system: Gli1 mRNA in Ptch1−/− mouse embryonic fibroblasts; assay: Gli1 mRNA (qRT-PCR) in Ptch1−/− MEFs; format: cell-based; details: increasing concentrations, 24 h
Description: HEK293T and Smo^−/−, Ptch^−/− MEFs cells were cultured in DMEM plus 10% FBS, 1% L-glutamine and antibiotics. Transient transfections were performed using DreamFectTM Gold transfection reagent (Oz Biosciences SAS, Marseille, France) following the manufacturer’s instructions and for varying periods of time depending on the experiment (24–72 h). […] Vehicle (DMSO) was used as control.
Total RNA was isolated with Trizol (Invitrogen/Life Technologies, Carlsbad, CA, USA) from Smo^−/− MEFs, Ptch^−/− MEFs or HT29 cells treated for 24 h and/or 48 h with 4s at different concentrations and reverse transcribed with the SensiFAST cDNA Synthesis Kit (Bioline Reagents Limited, London, UK). Quantitative real-time PCR (Q-PCR) analysis of Gli1 and housekeeping (HPRT, TBP, HMBS) mRNA levels was performed on each cDNA sample using the VIIA7 Real Time PCR System employing Assay-on-Demand Reagents (Life Technologies) as previously described. […] Each amplification reaction was performed in triplicate, the average of the three threshold cycles was used to calculate the amount of transcript in the sample (using SDS version 2.3 Software). mRNA quantification was expressed in arbitrary units as the ratio of the sample quantity to the quantity of the calibrator (ΔCt method). […]

HEK293 = assay: Cell cycle analysis (PI, flow cytometry), HEK293; format: cell-based, human; details: 19 µM, 24 h
Description: HT29 and HEK293 cells were plated in 6-well plates at a density of 2.0 × 10^5 cells/1.5 mL/well and grown overnight at 37 °C in a 5% CO2 humidified atmosphere. […] Aliquots of cells were collected, pelleted, washed, and fixed with ethanol (70% v/v) for at least 30 min at 4 °C. Cells were resuspended twice in PBS and, after centrifugation and elimination of the supernatant, they were finally resuspended in a PBS solution containing propidium iodide (PI; […], Invitrogen), RNase A ([…], Invitrogen). After a final incubation for 1 h in the dark at 37 °C, the PI signal was measured using a FACS Canto II Flow-cytometer (BD; Mountain View, CA) with a 488 nm excitation laser, captured and FACS DIVA was used as the acquisition software. The percentage of cells in each phase was analysed using the FCS Express v6 software. Two independent biological replicates were performed.

Solubility in water = format: physicochemical
human WT SMO = biological target: T2, human WT SMO (Homo sapiens, UniProt Q99835); assay: BODIPY-cyclopamine displacement assay, WT SMO; details: HEK293T transfected with WT SMO, BC 5 nM; read-out: IC50 for binding to WT SMO (BC displacement)
T2 construct: Myc-DDK; expressed in transfected cells; host or cells: HEK293T
T2 sequence (Q99835 28-787): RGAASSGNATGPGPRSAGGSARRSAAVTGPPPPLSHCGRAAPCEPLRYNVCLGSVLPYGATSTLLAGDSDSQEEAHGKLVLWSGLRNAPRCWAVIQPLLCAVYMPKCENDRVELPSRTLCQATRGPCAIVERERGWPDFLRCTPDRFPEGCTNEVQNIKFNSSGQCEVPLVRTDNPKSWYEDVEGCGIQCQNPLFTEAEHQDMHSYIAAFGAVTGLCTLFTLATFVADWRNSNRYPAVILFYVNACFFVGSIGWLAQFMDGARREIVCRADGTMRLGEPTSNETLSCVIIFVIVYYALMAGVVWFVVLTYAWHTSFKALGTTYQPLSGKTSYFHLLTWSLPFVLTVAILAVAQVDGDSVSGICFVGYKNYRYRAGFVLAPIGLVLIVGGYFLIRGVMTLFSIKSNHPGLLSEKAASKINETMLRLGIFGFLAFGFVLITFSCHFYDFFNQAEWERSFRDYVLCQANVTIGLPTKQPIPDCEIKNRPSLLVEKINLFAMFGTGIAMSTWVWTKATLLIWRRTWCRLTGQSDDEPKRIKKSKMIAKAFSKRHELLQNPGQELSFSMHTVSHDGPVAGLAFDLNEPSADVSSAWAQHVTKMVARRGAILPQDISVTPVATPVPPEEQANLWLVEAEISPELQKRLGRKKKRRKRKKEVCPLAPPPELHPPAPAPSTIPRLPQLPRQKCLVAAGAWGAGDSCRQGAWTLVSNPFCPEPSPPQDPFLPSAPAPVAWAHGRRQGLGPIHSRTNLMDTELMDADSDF
Description: as §1

[2] = system: Gli1 mRNA in WT MEFs stimulated with SAG; assay: Gli1 mRNA (qRT-PCR) in SAG-stimulated WT MEFs; format: cell-based, mouse; details: 10 µM, SAG 200 nM, 24 h
pancreatic cancer cells = system: pancreatic cancer cells; set-up: method as in PMID 28490735; details: cited from earlier work
HT29 = assay: Colony formation assay, HT29; format: cell-based, human; details: 5 µM, 14 d
Description: HT29, HCT116, H1975 and HEK293 cells were seeded in a 6-well plate (1 × 10^4 cells per well) and incubated overnight in DMEM F12 supplemented with 10% FBS. […] After 72 h, the medium was replaced by fresh medium without stimuli, and cells were incubated for an additional 14 d to permit colony formation. The cells were fixed during 30 min with PFA 4% (v/v), washed and stained for 30 min at RT with a 5% solution of violet crystal for final colony counting. Three independent replicates were performed.

T1 sequence (Q99835 28-787 D473H): as the sequence (Q99835 28-787) above, with D446H counted along it

Row | binding to the SMO-D473H mutant receptor (human SMO D473H mutant; HEK293T expressing SMO-D473H, up to 5 µM) | decrease of binding affinity with SMO-D473H mutant compared to WT SMO (human SMO D473H mutant; suggested, no IC50 determinable) | melting point | solubility in water (Solubility in water) | IC50 (human WT SMO) | SMILES | concentration above which toxic to SMO-D473H cells (human SMO D473H mutant; HEK293T expressing SMO-D473H) | GLI1 mRNA levels in Ptch1−/− MEFs [1] | changes in cell cycle, HEK293 (HEK293) | Gli-1 expression in WT MEF cells stimulated with SAG [2] | concentration inducing apoptosis in pancreatic cancer cells (pancreatic cancer cells) | colony formation HT-29 (HT29)
1 | dose-dependent inhibition of binding | about 25% | 153 to 155 °C | poor | 950 nM | CCCCCCn1cnc2c(-c3ccc(OC(F)(F)F)cc3)nc(N3CCN(c4ccncc4)CC3)nc21 [Compound 4s, 9-Hexyl-2-(4-(pyridin-4-yl)piperazin-1-yl)-6-(4-(trifluoromethoxy)phenyl)-9H-purine] | above 5 µM | significantly reduced mRNA levels of GLI1 | did not observe any changes | inhibited Gli-1 expression | – | –
2 | – | – | – | – | – | CS(=O)(=O)c1ccc(C(=O)Nc2ccc(Cl)c(-c3ccccn3)c2)c(Cl)c1 [Vismodegib, reference compound] | – | – | – | – | greater than 100 µM | less effective than 4s
